From patent US10703746B2, “Mutant IDH1 inhibitors useful for treating cancer” (THE UNITED STATES OF AMERICA, AS REPRESENTED BY THE …, priority 2014, dated 2020)

How the values were obtained:
IDH1 R132H = IDH1 R132H (Homo sapiens, UniProt O75874, R132H); assay: IDH1 R132H enzymatic assay (NADPH depletion coupled to diaphorase/resazurin); format: biochemical; conditions: IDH1 R132H enzymatic inhibition, IC50 class
IDH1 R132C = IDH1 R132C (Homo sapiens, UniProt O75874, R132C); assay: IDH1 R132C enzymatic assay (NADPH depletion coupled to diaphorase/resazurin); format: biochemical; conditions: IDH1 R132C enzymatic inhibition, IC50 class
Sequence of IDH1 R132C (O75874 whole entry R132C): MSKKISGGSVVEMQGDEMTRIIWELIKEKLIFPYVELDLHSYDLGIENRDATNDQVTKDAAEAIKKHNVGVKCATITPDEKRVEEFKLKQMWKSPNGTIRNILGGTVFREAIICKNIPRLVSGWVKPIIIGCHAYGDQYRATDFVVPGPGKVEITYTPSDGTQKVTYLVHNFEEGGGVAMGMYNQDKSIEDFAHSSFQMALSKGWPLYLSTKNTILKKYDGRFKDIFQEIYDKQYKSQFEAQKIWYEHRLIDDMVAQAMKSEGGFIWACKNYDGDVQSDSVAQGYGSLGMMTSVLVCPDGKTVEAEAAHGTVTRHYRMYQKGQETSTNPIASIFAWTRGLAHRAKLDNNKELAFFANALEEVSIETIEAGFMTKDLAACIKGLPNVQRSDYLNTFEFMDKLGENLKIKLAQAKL
Outline: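 NADPH depletion, read via diaphorase/resazurin coupling, after adding substrate at 0.6 mM α-KG and 0.012 mM NADPH. Beforehand, 0.00032 mg/mL enzyme sat with compound 30 min at room temperature in pH 6.5 potassium phosphate buffer with MgCl2, glycerol and BSA.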

Sequence of IDH1 R132H (O75874 whole entry R132H): as the sequence (O75874 whole entry R132C) above, with C132H counted along it

Row | Compound | IC50 (IDH1 R132H) | IC50 (IDH1 R132C)
1 | CC1(C)CC(=O)c2cc(-c3nc(-c4ccc(Cl)cc4)cs3)c(=O)n(-c3ccccc3CO)c2C1 [Compound 269] | 5000 to 20000 nM | 1000 to 5000 nM
2 | CCc1cccc(CC)c1-n1c(CC(C)C)c(C(=O)NC[C@@H](C)O)cc(-c2nc(-c3ccc(Cl)cc3)cs2)c1=O [Compound 276] | 300 to 1000 nM | < 300 nM
3 | Cc1noc(-n2c3c(cc(-c4nc(-c5ccc(Cl)cc5)cs4)c2=O)C(=O)CC(C)(C)C3)c1C [Compound 277] | 1000 to 5000 nM | 1000 to 5000 nM
4 | Cc1c(N)cccc1-n1c2c(cc(-c3nc(-c4ccc(Cl)cc4)cs3)c1=O)C(=O)CC(C)(C)C2 [Compound 288] | 1000 to 5000 nM | 1000 to 5000 nM
5 | COc1ccc(OC)c(-n2c(=O)c(-c3nc(-c4ccc(Cl)cc4)cs3)cc3c(OC)cncc32)c1 [Compound 289] | > 20000 nM | 5000 to 20000 nM
6 | COc1ccc(OC)c(-n2c3c(cc(-c4c[nH]c(-c5ccccc5)n4)c2=O)C(=O)CC(C)(C)C3)c1 [Compound 290] | 1000 to 5000 nM | 1000 to 5000 nM
7 | COc1ccc(OC)c(-n2c3c(cc(-c4nc(-c5ccc(Cl)cc5)c[nH]4)c2=O)C(=O)CC(C)(C)C3)c1 [Compound 291] | 1000 to 5000 nM | 1000 to 5000 nM
8 | CCc1cccc(CC)c1-n1c(C)c(C(=O)NC2CCOCC2)cc(-c2nc(-c3ccc(Cl)cc3)cs2)c1=O [Compound 296] | 1000 to 5000 nM | 1000 to 5000 nM
9 | CCc1cccc(CC)c1-n1c(CC(C)C)c(C(=O)N2CC(=O)N[C@@H](C(=O)O)C2)cc(-c2nc(-c3ccc(Cl)cc3)cs2)c1=O [Compound 297] | 300 to 1000 nM | 300 to 1000 nM
10 | CCc1cccc(CC)c1-n1c2c(cc(-c3nc(C4=CCNCC4)c(C)s3)c1=O)C(=O)CC(C)(C)C2 [Compound 298] | > 20000 nM | 5000 to 20000 nM
11 | CCc1cccc(CC)c1-n1c(C)c(C(=O)N2CCNCC2)cc(-c2nc(-c3ccc(Cl)cc3)cs2)c1=O [Compound 300] | < 300 nM | 300 to 1000 nM
12 | CC1(C)CC(=O)c2cc(-c3nc(-c4ccc(Cl)cc4)cs3)c(=O)n(-c3ccccc3N)c2C1 [Compound 301] | 1000 to 5000 nM | 1000 to 5000 nM
13 | CCc1cccc(CC)c1-n1c(C)c(C(=O)NCCN)cc(-c2nc(-c3ccc(Cl)cc3)cs2)c1=O [Compound 303] | 300 to 1000 nM | 1000 to 5000 nM
14 | CCc1cccc(CC)c1-n1c(C)c(C(=O)NCCCNC)cc(-c2nc(-c3ccc(Cl)cc3)cs2)c1=O [Compound 304] | 1000 to 5000 nM | 300 to 1000 nM
15 | CCc1cccc(CC)c1-n1c(C)c(C(=O)N(C)CCO)cc(-c2nc(-c3ccc(Cl)cc3)cs2)c1=O [Compound 308] | 1000 to 5000 nM | 1000 to 5000 nM
16 | CCc1cccc(CC)c1-n1c2c(cc(C(=O)N(C)Cc3ccc(Cl)cc3)c1=O)C(=O)CC(C)(C)C2 [Compound 309] | 5000 to 20000 nM | 5000 to 20000 nM
17 | CCc1cccc(CC)c1-n1c(CC(C)C)c(C(=O)N2CCNCC2)cc(-c2cccc(-c3ccc(Cl)cc3)n2)c1=O [Compound 310] | 1000 to 5000 nM | 1000 to 5000 nM
18 | CCc1cccc(CC)c1-n1c(CC(C)C)c(C(=O)N2CCCCC2CO)cc(-c2nc(-c3ccc(Cl)cc3)cs2)c1=O (centres unmarked) [Compound 312] | 1000 to 5000 nM | 300 to 1000 nM
19 | CCc1cccc(CC)c1-n1c(C)c(C(=O)NCC(C)C)cc(-c2nc(-c3ccc(Cl)cc3)cs2)c1=O [Compound 313] | > 20000 nM | 1000 to 5000 nM
20 | CCc1cccc(CC)c1-n1c(CC(C)C)c(C(=O)N2CCNC(C(F)(F)F)C2)cc(-c2nc(-c3ccc(Cl)cc3)cs2)c1=O (centres unmarked) [Compound 314] | 300 to 1000 nM | 300 to 1000 nM
21 | CCc1ncc(F)cc1-n1c(C=C(C)C)c(C(=O)N2CCNCC2)cc(-c2nc(-c3ccc(C(F)(F)F)nc3)cs2)c1=O [Compound 315] | 300 to 1000 nM | 1000 to 5000 nM
22 | CC(C)=Cc1c(C(=O)N2CCNCC2)cc(-c2nc(-c3ccc(Cl)cc3)cs2)c(=O)n1-c1cc(F)cnc1OC(C)C [Compound 316] | < 300 nM | < 300 nM
23 | COc1ccc(F)cc1-n1c2c(cc(-c3nc(-c4ccc(Cl)cc4)cs3)c1=O)C(=O)CCC2 [Compound 318] | 1000 to 5000 nM | 1000 to 5000 nM
24 | COc1cccc(CN2CCN(C)CC2)c1-n1c2c(cc(-c3nc(-c4ccc(Cl)cc4)cs3)c1=O)C(=O)CC(C)(C)C2 [Compound 319] | 5000 to 20000 nM | 5000 to 20000 nM
25 | CCc1cccc(CC)c1-n1c(C=C(C)C)c(C(=O)N2CCC3(CCNC3)C2)cc(-c2nc(-c3ccc(Cl)cc3)cs2)c1=O (centres unmarked) [Compound 320] | 300 to 1000 nM | < 300 nM
26 | CCc1cccc(CC)c1-n1c(CC(C)C)c(C(=O)N2CCNCC2)cc(-c2nc(-c3ccc(OC)nc3)c(C)s2)c1=O [Compound 322] | 300 to 1000 nM | 300 to 1000 nM

Results, then the molecule that gave them:

Row | IC50 (IDH1 R132H) | IC50 (IDH1 R132C) | Compound
27 | 1000 to 5000 nM | 1000 to 5000 nM | CCc1cccc(CC)c1-n1c(C)c(C(=O)NC2CCCCC2O)cc(-c2nc(-c3ccc(Cl)cc3)cs2)c1=O (centres unmarked) [Compound 270]
28 | 1000 to 5000 nM | 1000 to 5000 nM | CCc1cccc(CC)c1-n1c(C)c(C(=O)N(C)C)cc(-c2nc(-c3ccc(Cl)cc3)cs2)c1=O [Compound 271]
29 | 300 to 1000 nM | < 300 nM | CCc1cccc(CC)c1-n1c(CC(C)C)c(C(=O)N2CCNCC2CO)cc(-c2nc(-c3ccc(Cl)cc3)cs2)c1=O (centres unmarked) [Compound 272]
30 | 300 to 1000 nM | < 300 nM | CCc1cccc(CC)c1-n1c(CC(C)C)c(C(=O)N2CCNC(C)(CO)C2)cc(-c2nc(-c3ccc(Cl)cc3)cs2)c1=O (centres unmarked) [Compound 273]
31 | 300 to 1000 nM | < 300 nM | CCc1cccc(CC)c1-n1c(CC(C)C)c(C(=O)N2CCNCC2(C)C)cc(-c2nc(-c3ccc(Cl)cc3)cs2)c1=O [Compound 274]
32 | < 300 nM | < 300 nM | CCc1cccc(CC)c1-n1c(COC)c(C(=O)N2CCNCC2)cc(-c2nc(-c3ccc(Cl)cc3)cs2)c1=O [Compound 275]
33 | < 300 nM | < 300 nM | CCc1cccc(CC)c1-n1c(CCOC)c(C(=O)N2CCNCC2)cc(-c2nc(-c3ccc(Cl)cc3)cs2)c1=O [Compound 278]
34 | 1000 to 5000 nM | 300 to 1000 nM | CCc1cccc(C)c1-n1c2c(cc(-c3nc(-c4ccc(Cl)cc4)cs3)c1=O)C(=O)CC(C)(C)C2 [Compound 279]
35 | 5000 to 20000 nM | 5000 to 20000 nM | COc1ccc(OC)c(-n2c3c(cc(-c4nc(-c5ccc(Cl)cc5)cs4)c2=O)C(=O)CNC3)c1 [Compound 280]
36 | 5000 to 20000 nM | 5000 to 20000 nM | CCc1cccc(CC)c1-n1c2c(cc(-c3nc(-c4ccc(O)cc4)cs3)c1=O)C(=O)CC(C)(C)C2 [Compound 281]
37 | 300 to 1000 nM | < 300 nM | CCc1cccc(CC)c1-n1c2c(cc(-c3nc(-c4ccc(Cl)cc4)cs3)c1=O)C(=O)CC(C)(C)C2 [Compound 282]
38 | 300 to 1000 nM | < 300 nM | CCc1cccc(CC)c1-n1c(CC(C)C)c(C(=O)N2CCN[C@H](CO)C2)cc(-c2nc(-c3ccc(Cl)cc3)cs2)c1=O [Compound 283]
39 | 5000 to 20000 nM | 5000 to 20000 nM | COc1ccc(OC)c(-n2c3c(cc(-c4cccc(-c5ccc(Cl)cc5)n4)c2=O)C(=O)CC(C)(C)C3)c1 [Compound 284]
40 | < 300 nM | < 300 nM | CCOc1ccc(-c2nc(-c3cc(C(=O)N4CCNCC4)c(CC(C)C)n(-c4c(CC)cccc4CC)c3=O)sc2C)cc1 [Compound 285]
41 | 1000 to 5000 nM | 1000 to 5000 nM | CC(=O)c1ccccc1-n1c2c(cc(-c3nc(-c4ccc(Cl)cc4)cs3)c1=O)C(=O)CC(C)(C)C2 [Compound 286]
42 | > 20000 nM | 1000 to 5000 nM | COc1ccc(OC)c(-n2c3c(cc(-c4nnn(-c5ccc(Cl)cc5)n4)c2=O)C(=O)CC(C)(C)C3)c1 [Compound 287]
43 | 1000 to 5000 nM | 1000 to 5000 nM | CCc1cccc(CC)c1-n1c2c(cc(-c3nc(-c4ccc(C)cn4)c(C)s3)c1=O)C(=O)CC(C)(C)C2 [Compound 292]
44 | 300 to 1000 nM | 300 to 1000 nM | CCc1cccc(CC)c1-n1c(CC)c(C(=O)NC)cc(-c2nc(-c3ccc(Cl)cc3)cs2)c1=O [Compound 293]
45 | > 20000 nM | 5000 to 20000 nM | COc1ccc(OC)c(-n2c3c(cc(-c4cc(-c5ccccc5)[nH]n4)c2=O)C(=O)CC(C)(C)C3)c1 [Compound 294]
46 | 1000 to 5000 nM | 300 to 1000 nM | CC1(C)CC(=O)c2cc(-c3nc(-c4ccc(Cl)cc4)cs3)c(=O)n(-c3ccccc3-c3ccccc3)c2C1 [Compound 295]
47 | 1000 to 5000 nM | 1000 to 5000 nM | CCc1cccc(CC)c1-n1c2c(cc(-c3nc(-c4ccc(C)nc4)c(C)s3)c1=O)C(=O)CC(C)(C)C2 [Compound 299]
48 | 300 to 1000 nM | 300 to 1000 nM | CCc1cccc(CC)c1-n1c(C)c(C(=O)NC2CCNCC2)cc(-c2nc(-c3ccc(Cl)cc3)cs2)c1=O [Compound 302]
49 | 300 to 1000 nM | < 300 nM | CCc1cccc(CC)c1-n1c(CC(C)C)c(C(=O)N2CCNC(C)C2)cc(-c2nc(-c3ccc(Cl)cc3)cs2)c1=O (centres unmarked) [Compound 305]
50 | 5000 to 20000 nM | 5000 to 20000 nM | COc1ccc(OC)c(-n2c3c(cc(-c4nc(-c5ccc(Cl)cc5)no4)c2=O)C(=O)CC(C)(C)C3)c1 [Compound 306]
51 | 5000 to 20000 nM | 5000 to 20000 nM | CCc1cccc(CC)c1-n1c(CC(C)C)c(C(=O)N2CCNCC2)cc(-c2nc(-c3ccc(C(N)=O)cc3)c(C)s2)c1=O [Compound 307]
52 | 1000 to 5000 nM | 1000 to 5000 nM | CCc1cccc(CC)c1-n1c(C)c(C(=O)NC(C)C)cc(-c2nc(-c3ccc(Cl)cc3)cs2)c1=O [Compound 311]
53 | 5000 to 20000 nM | 1000 to 5000 nM | CCc1cccc(CC)c1-n1c(-c2ccn(-c3ccccc3)n2)c(C(=O)N2CCNCC2)cc(-c2nc(-c3ccc(Cl)cc3)cs2)c1=O [Compound 317]
54 | < 300 nM | < 300 nM | CCc1cccc(CC)c1-n1c(C=C(C)C)c(C(=O)N2C[C@H]3CC[C@@H](C2)N3)cc(-c2nc(-c3ccc(C(F)(F)F)cc3)cs2)c1=O [Compound 323]
55 | < 300 nM | < 300 nM | CCc1cccc(CC)c1-n1c(C=C(C)C)c(C(=O)N2CCNC3(CC3)C2)cc(-c2nc(-c3ccc(C(F)(F)F)cc3)cs2)c1=O [Compound 324]
